# Assays:
# [1] = Rat Hepatocyte Stability (Test E); type: in vitro ADME; conditions: rat, hepatocytes, geometric mean if run multiple times
# Procedure, shortened: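 Intrinsic clearance in rat hepatocytes, expressed as μl/min/10^6 cells, following the literature integrated DMPK panel method. Repeat determinations combined as geometric mean.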
# [2] = Human Plasma Protein Binding (Test B); type: in vitro ADME; conditions: fraction unbound (fu)
# Procedure, shortened: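 Values given as % free (fu) in human plasma, using the method of Wernevik et al. (2020). For compounds tested more than once, the arithmetic mean is given.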
# [3] = Human Liver Microsomal Stability (Test C); type: in vitro ADME; conditions: human, liver microsomes
# Procedure, shortened: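 CLint (μl/min/mg protein) derived from compound depletion in human liver microsomes following a published standardized early-DMPK protocol; replicate determinations given as arithmetic mean.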
# Solubility (Test F) = type: physicochemical; conditions: arithmetic mean if run multiple times
# Procedure: The assay was conducted according to the Solubility Assay described in pages 164-167 of Wernevik, J. et al., “A Fully Integrated Assay Panel for Early Drug Metabolism and Pharmacokinetics Profiling”, Assay and Drug Development Technologies, 2020, 18(4), 157-179. Data are reported in Table 36 as solubility ([…]. Where the assay was run multiple times for the same compound, the arithmetic mean is reported.
# human RXFP1 = target: T1, human RXFP1 (Homo sapiens, UniProt Q9HBX9); assay: RXFP1 Hu cAMP (Test A); type: cell-based; set-up: expressed in transfected cells; host or cells: Jump-In T-REx CHO-K1 cells (ThermoFisher), induced with 10 ng/ml doxycycline for 24 h; conditions: RXFP1 Hu cAMP; for EC50: read-out: Test A EC50
# T1 sequence (Q9HBX9 1-757): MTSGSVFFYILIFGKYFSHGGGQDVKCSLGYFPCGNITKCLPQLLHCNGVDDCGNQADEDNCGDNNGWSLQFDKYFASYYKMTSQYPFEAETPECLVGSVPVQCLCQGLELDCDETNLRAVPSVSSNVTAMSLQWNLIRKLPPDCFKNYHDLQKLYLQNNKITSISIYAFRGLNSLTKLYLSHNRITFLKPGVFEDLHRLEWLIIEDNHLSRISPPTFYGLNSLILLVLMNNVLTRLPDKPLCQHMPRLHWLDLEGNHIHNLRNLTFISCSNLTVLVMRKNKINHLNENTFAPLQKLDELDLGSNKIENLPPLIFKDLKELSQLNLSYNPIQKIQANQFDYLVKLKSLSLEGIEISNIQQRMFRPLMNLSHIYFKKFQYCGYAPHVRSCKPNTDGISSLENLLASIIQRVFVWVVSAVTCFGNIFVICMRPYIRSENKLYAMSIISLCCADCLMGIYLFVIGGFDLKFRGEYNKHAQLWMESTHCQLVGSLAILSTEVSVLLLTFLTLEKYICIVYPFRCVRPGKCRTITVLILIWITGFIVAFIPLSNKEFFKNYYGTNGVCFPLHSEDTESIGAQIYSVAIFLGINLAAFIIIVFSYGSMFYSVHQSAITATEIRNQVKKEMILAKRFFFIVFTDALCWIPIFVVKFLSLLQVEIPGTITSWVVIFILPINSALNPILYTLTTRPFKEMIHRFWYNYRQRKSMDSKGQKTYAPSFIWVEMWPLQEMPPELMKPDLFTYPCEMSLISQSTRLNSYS
# Procedure, shortened: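 CHO-K1 (Jump-In T-REx), RXFP1 induced w/ 10 ng/ml doxycycline 24 h, cryopreserved. 0.5 mM IBMX final. cAMP by HTRF, 2 h RT, std curve.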
hepatocyte CLint [1],Test B Human Plasma Protein Binding (% free) [2],microsomal CLint [3],solubility (Solubility (Test F)),Test A Sinf (human RXFP1),EC50 (human RXFP1),SMILES
21 µL/min/1e6 cells,18 % free,4.4 µL/min/mg,880 µM,123%,480 nM,COc1cc(C#N)c(O[C@H]2CC[C@@](C)(C(=O)O)CC2)cc1C(=O)N[C@@H]1[C@H]2CC[C@H](C2)[C@@H]1C(=O)NCC1(CF)CC1 [Example 95]
12 µL/min/1e6 cells,1.4 % free,5.2 µL/min/mg,29 µM,100%,> 9300 nM,"COc1cc(F)c(O[C@H]2CC[C@@](C)(C(=O)O)CC2)cc1C(=O)Nc1c(C)cc(C)cc1C(=O)NCC1(C)CCC1 [Example 211, (1s,4s)-4-(5-((2,4-Dimethyl-6-(((1-methylcyclobutyl)methyl)carbamoyl)phenyl)carbamoyl)-2-fluoro-4-methoxyphenoxy)-1-methylcyclohexane-1-carboxylic acid]"
17 µL/min/1e6 cells,0.19 % free,43 µL/min/mg,< 7.3 µM,–,> 9400 nM,"COc1cc(F)c(O[C@H]2CC[C@@](C)(C(=O)O)CC2)cc1C(=O)Nc1nn2cccnc2c1C(=O)NCC1(C)CCC1 [Example 217, (1s,4s)-4-(2-Fluoro-4-methoxy-5-((3-(((1-methylcyclobutyl)methyl)carbamoyl)pyrazolo[1,5-a]pyrimidin-2-yl)carbamoyl)phenoxy)-1-methylcyclohexane-1-carboxylic acid]"
18 µL/min/1e6 cells,0.59 % free,7.4 µL/min/mg,890 µM,–,> 5000 nM,"COc1cc(C#N)c(O[C@H]2C[C@@](C)(C(=O)O)C2)cc1C(=O)N[C@@H]1[C@H]2CC[C@H](C2)[C@@H]1C(=O)NCC1(C)CCC1 [Example 148, (1S,3s)-3-(2-cyano-4-methoxy-5-(((1S,2R,3S,4R)-3-(((1-methylcyclobutyl)methyl)carbamoyl)bicyclo[2.2.1]heptan-2-yl)carbamoyl)phenoxy)-1-methylcyclobutane-1-carboxylic acid]"
36 µL/min/1e6 cells,0.76 % free,74 µL/min/mg,300 µM,97%,120 nM,"COc1cc(C)c(O[C@H]2CC[C@@H](C(=O)O)CC2)cc1C(=O)N[C@@H]1[C@H]2CC[C@H](C2)[C@@H]1C(=O)Nc1cccc(S(=O)(=O)C(F)(F)F)c1 [Example 465, (1S,4s)-4-(4-Methoxy-2-methyl-5-(((1S,2R,3S,4R)-3-((3-((trifluoromethyl)sulfonyl)phenyl)carbamoyl)bicyclo[2.2.1]heptan-2-yl)carbamoyl)phenoxy)cyclohexane-1-carboxylic acid]"
57 µL/min/1e6 cells,2.7 % free,97 µL/min/mg,250 µM,111%,31 nM,COc1cc(C#N)c(O[C@H]2CC[C@@](C)(C(=O)O)CC2)cc1C(=O)N[C@@H]1[C@H]2CC[C@H](C2)[C@@H]1C(=O)NC12CC3C[C@H](C1)C[C@H](C3)C2 [Example 81]
12 µL/min/1e6 cells,<0.25 % free,6.2 µL/min/mg,48 µM,105%,490 nM,COc1cc(F)c(-c2cccc(CCC(=O)O)c2)cc1C(=O)N[C@H]1[C@@H](C(=O)Nc2cccc(S(=O)(=O)C(F)(F)F)c2)[C@@H]2C=C[C@H]1C2 (racemic) [Example 282]
24 µL/min/1e6 cells,26 % free,< 3 µL/min/mg,890 µM,97%,440 nM,COc1cc(C#N)c(O[C@H]2CC[C@@](C)(C(=O)O)CC2)cc1C(=O)N[C@@H]1[C@H]2CC[C@H](C2)[C@@H]1C(=O)NCC(C)(F)F [Example 96]
6.4 µL/min/1e6 cells,33 % free,6.3 µL/min/mg,970 µM,93%,> 2700 nM,COc1cc(F)c(O[C@H]2CC[C@@](C)(C(=O)O)CC2)cc1C(=O)N[C@@H]1CCC[C@@H]1C(=O)NCC(C)(C)C#N [Example 69]
17 µL/min/1e6 cells,<2.7 % free,6.5 µL/min/mg,4 µM,134%,310 nM,"COc1cc(F)c(O[C@H]2CC[C@@](C)(C(=O)O)CC2)cc1C(=O)Nc1cc(C)c(C)cc1C(=O)NCC1(C)CCC1 [Example 212, (1s,4s)-4-(5-((4,5-Dimethyl-2-(((1-methylcyclobutyl)methyl)carbamoyl)phenyl)carbamoyl)-2-fluoro-4-methoxyphenoxy)-1-methylcyclohexane-1-carboxylic acid]"
12 µL/min/1e6 cells,2.3 % free,19 µL/min/mg,780 µM,97%,130 nM,COc1cc(F)c(-c2cnc(NCC(=O)O)nc2)cc1C(=O)N[C@@H]1[C@H]2CC[C@H](C2)[C@@H]1C(=O)Nc1cccc(S(=O)(=O)C(F)(F)F)c1 [Example 240]
8.8 µL/min/1e6 cells,<0.32 % free,24 µL/min/mg,> 1000 µM,102%,31 nM,COc1cc(F)c(-c2ccc3c(c2)OC[C@H]3CC(=O)O)cc1C(=O)N[C@@H]1[C@H]2CC[C@H](C2)[C@@H]1C(=O)Nc1cccc(S(=O)(=O)C(F)(F)F)c1 [Example 253]
59 µL/min/1e6 cells,5.9 % free,20 µL/min/mg,830 µM,114%,270 nM,CCCCNC(=O)[C@H]1[C@@H]2CC[C@@H](C2)[C@H]1NC(=O)c1cc(O[C@H]2CC[C@@](C)(C(=O)O)CC2)c(C#N)cc1OC [Example 91]
14 µL/min/1e6 cells,14 % free,4.4 µL/min/mg,> 1000 µM,97%,840 nM,COc1cc(F)c(O[C@H]2CC[C@@](C)(C(=O)O)CC2)cc1C(=O)N[C@@H]1CCC[C@@H]1C(=O)NCC1(C)CC1 [Example 68]
70 µL/min/1e6 cells,8.6 % free,7.4 µL/min/mg,> 1000 µM,–,> 40000 nM,"COc1cc(F)c(O[C@H]2CC[C@@H](C(=O)O)CC2)cc1C(=O)N[C@@H]1[C@H]2CC[C@H](C2)[C@@H]1C(=O)Nc1c(F)cccc1F [Example 184, (1S,4s)-4-(5-(((1S,2R,3S,4R)-3-((2,6-Difluorophenyl)carbamoyl)bicyclo[2.2.1]heptan-2-yl)carbamoyl)-2-fluoro-4-methoxyphenoxy)cyclohexane-1-carboxylic acid]"
19 µL/min/1e6 cells,0.16 % free,6.3 µL/min/mg,870 µM,92%,190 nM,"COc1cc(F)c(-c2ccc(C(=O)O)cc2)cc1C(=O)N[C@H]1[C@@H](C(=O)Nc2cccc(S(=O)(=O)C(F)(F)F)c2)[C@@H]2C=C[C@H]1C2 (racemic) [Example 224, rac-2′-Fluoro-4′-methoxy-5′-(((1R,2R,3S,4S)-3-((3-((trifluoromethyl)sulfonyl)phenyl)carbamoyl)bicyclo[2.2.1]hept-5-en-2-yl)carbamoyl)-[1,1′-biphenyl]-4-carboxylic acid]"
31 µL/min/1e6 cells,28 % free,7.5 µL/min/mg,980 µM,–,> 5000 nM,COCC1(CNC(=O)[C@H]2[C@@H]3CC[C@@H](C3)[C@H]2NC(=O)c2cc(O[C@H]3CC[C@@](C)(C(=O)O)CC3)c(C#N)cc2OC)CC1 [Example 79]

# Source: US11667602B2, “Compounds and their use” (AstraZeneca AB, priority 2020, dated 2023)
